Values after ≈ are worked out from the molar mass of the structure shown.
Settings: buffer; pH 7.4; 200.0 µM

Compound | solubility kinetic
FC(F)(F)c1nc2ccccc2[nH]1 | > 27.9 µg/mL
O=C(N/N=C/c1ccccc1O)C1CCCC1 | > 34.8 µg/mL
COc1ccc(/C(C)=N\O)cc1OC | 16.9 µg/mL (≈ 86.6 µM)
Cc1cccc(NC(=O)c2ccc3nccnc3c2)n1 | > 39.6 µg/mL
CC1CCCC(C)N1C(=O)COC(=O)c1cc(=O)[nH]c2ccccc12 (configuration not stated) | > 51.4 µg/mL
CSc1ncccc1C(=O)Nc1ccc2c(c1)OCCO2 | 15.7 µg/mL (≈ 51.9 µM)
CCN(c1ccccc1)S(=O)(=O)c1ccc(N2CCN(c3ccc(O)cc3)CC2)nc1 | 2.7 µg/mL (≈ 6.16 µM)
O=C1COc2ccc(C(=O)NC3CC3)cc2N1 | > 34.8 µg/mL
COC(=O)c1scc(S(C)(=O)=O)c1-n1cccc1 | 35.2 µg/mL (≈ 123 µM)
COc1ccc2nc(NC(=O)C3CC(=O)N(c4ccccc4)C3)sc2c1 (configuration not stated) | 0.7 µg/mL (≈ 1.91 µM)
Cc1[nH]c2ccc(OCc3ccccc3)cc2c1CCN.Cl | > 47.5 µg/mL
CCOC(=O)c1ccc2c(c1)N(C)C(=O)c1ccccc1S2 | 7.7 µg/mL (≈ 24.6 µM)
CC(C)CNC(=S)N1CCC(NC(=O)c2ccco2)CC1 | 41.9 µg/mL (≈ 135 µM)
Cc1ccccc1OC(C)C(=O)Nc1ccc2c(c1)OCO2 (configuration not stated) | 38.8 µg/mL (≈ 130 µM)
Cc1ccc(O)c(NC(=O)C2CC(c3cccc(Br)c3)=NO2)c1 (configuration not stated) | < 0.4 µg/mL
NC(=O)c1cc(-c2csc(-c3cccnc3)n2)ccc1O | 5.2 µg/mL (≈ 17.5 µM)
CCOC(=O)c1sc(NC(=O)c2c(CC)noc2C)nc1C | > 48.5 µg/mL
O=C(O)c1ccc(-n2c(/C=C/c3ccccc3)nc3ccccc3c2=O)cc1 | > 55.3 µg/mL
Cc1ccccc1NC(=O)CSC(=O)c1ccccc1 | 12.5 µg/mL (≈ 43.8 µM)
Cl.OC1(CNCc2ccccc2)C2CC3CC(C2)CC1C3 (configuration not stated) | > 46.2 µg/mL
O=C1C2CCCCN2C(=O)N1CCCCN1CCN(c2ccc(F)cc2)CC1 (configuration not stated) | 43.5 µg/mL (≈ 112 µM)
NC(=S)NNC(=O)COc1ccccc1O | > 36.2 µg/mL
Cc1cccc(C(=O)Nc2ccc(Oc3cnccn3)cc2)c1 | 5.6 µg/mL (≈ 18.3 µM)
COc1cc(C(C)=O)ccc1Oc1ncccn1 | > 36.6 µg/mL
O=C(CCn1ccnc1)Nc1cc(Cl)ccc1O | > 39.9 µg/mL

Compound | solubility kinetic
COc1ccc(CC(=O)Nc2cccnc2)cc1 | > 36.3 µg/mL
O=C(COc1ccccc1/C=C1\SC(=S)NC1=O)Nc1ccc(F)cc1 | 3 µg/mL (≈ 7.72 µM)
CCCCCC(=O)Nc1ncc2c(n1)CC(c1cccs1)CC2=O (configuration not stated) | 4.4 µg/mL (≈ 12.8 µM)
CCOC(=O)N1CCN(c2cc(NCCO)c([N+](=O)[O-])c3nonc23)CC1 | 5.9 µg/mL (≈ 15.5 µM)
O=C(COC(=O)/C=C/c1cccc(F)c1)NC(=O)NC1CCCC1 | 4.9 µg/mL (≈ 14.7 µM)
Cc1sc(NC(=O)c2c(F)cccc2F)nc1-c1ccccc1 | 0.6 µg/mL (≈ 1.82 µM)
CCc1nonc1NC(=O)c1oc2cc(C)c(Cl)cc2c1C | 0.5 µg/mL (≈ 1.56 µM)
CC(OC(=O)CC1CCCC1)C(=O)Nc1ccc(Cl)cn1 (configuration not stated) | 30.9 µg/mL (≈ 99.4 µM)
COC(=O)c1cccc(NC(=O)c2cc3ccccc3o2)c1 | 13.5 µg/mL (≈ 45.7 µM)
Cc1ccc(OCCn2ccnc2)c(C)c1 | 22.8 µg/mL (≈ 105 µM)
O=[N+]([O-])c1ccc(Cl)c2cccnc12 | 24.6 µg/mL (≈ 118 µM)
CC(=O)c1ccc(N2CCN(CC3CCCCC3)CC2)cc1 | 22 µg/mL (≈ 73.2 µM)
O=c1cnnc(Nc2ccccc2)[nH]1 | > 28.2 µg/mL
CCN(CC)S(=O)(=O)c1cccc(NC2=NCC(C)S2)c1 (configuration not stated) | > 49.1 µg/mL
Cc1nc2ccccc2c(=O)n1-c1cc([N+](=O)[O-])cc([N+](=O)[O-])c1 | 17.1 µg/mL (≈ 52.4 µM)
Cc1c(NS(=O)(=O)c2cccc(C(=O)N3CCC(C)CC3)c2)c(=O)n(-c2ccccc2)n1C | > 70.3 µg/mL
CCNC(=O)C(C)NC(=O)C1=NN(c2ccccc2)C(=O)CC1 (configuration not stated) | > 47.5 µg/mL
Cc1cccc2nc(-c3ccco3)oc(=O)c12 | 21.6 µg/mL (≈ 95.1 µM)
CC(C(=O)N1CCN(c2ccccc2F)CC1)c1ccc([N+](=O)[O-])cc1 (configuration not stated) | 38.8 µg/mL (≈ 109 µM)
COC(=O)c1cccc(CSC(=S)N2CCCC2)c1 | 3.6 µg/mL (≈ 12.2 µM)
CCOC(=O)CC1C(=O)NCCN1C(=O)c1ccc(Cl)cc1 (configuration not stated) | > 48.7 µg/mL
COc1cccc(CNC(=O)c2ccncc2)c1 | 36.3 µg/mL (≈ 150 µM)
CCS(=O)(=O)N1CCC(C(=O)Nc2cc(C)ccc2O)CC1 | > 49 µg/mL
O=C(CN1CCN(c2ccccn2)CC1)Nc1cccc(F)c1 | 19.9 µg/mL (≈ 63.3 µM)
CCc1ccccc1NC(=O)C1CCN(S(C)(=O)=O)CC1 | > 46.6 µg/mL

Compound | solubility kinetic
Cc1noc(-c2ccccc2)c1NC(=O)Nc1ccccc1 | > 44 µg/mL
CC(=O)Nc1cc2c3c(c1)CCN3C(=O)CC2 | > 34.5 µg/mL
Cc1ccc(NC2=NCCCS2)cc1Cl | 28.4 µg/mL (≈ 118 µM)
O=C1CSC(c2ccc(Cl)cc2)N1c1cccnc1 (configuration not stated) | 42.1 µg/mL (≈ 145 µM)
O=C(CCC(=O)c1cccs1)NCc1cccnc1 | > 41.2 µg/mL
Cc1cc(NC(=O)CN2C(=O)NC(CCc3ccccc3)C2=O)no1 (configuration not stated) | > 51.4 µg/mL
COc1cccc(C(=O)Nc2ccc(NC(=O)C3CCCCC3)nc2)c1 | 2 µg/mL (≈ 5.66 µM)
O=C(OCC(=O)N1CCCCC1)c1ccc(OC(F)(F)F)cc1 | 16.2 µg/mL (≈ 48.9 µM)
COc1ccc(CCNC(=O)c2ccccc2C(=O)NCCc2ccc(OC)cc2)cc1 | 2.2 µg/mL (≈ 5.09 µM)
CC(NC(=O)c1ccc(C#N)cc1)C1CC2CCC1C2 (configuration not stated) | > 40.3 µg/mL
O=C(NC(=O)c1ccccc1)Nc1cccc(S(=O)(=O)N2CCCCC2)c1 | 2.2 µg/mL (≈ 5.68 µM)
Cc1ccc(C)c(Cn2c(=O)n(C)c(=O)c3sccc32)c1 | 0.4 µg/mL (≈ 1.33 µM)
Cc1ccc(C(=O)NC2(O)C(=O)c3ccccc3C2=O)cc1C | > 46.4 µg/mL
CCNC(=O)NC(=O)C(C)OC(=O)c1ccc(SC)cc1OC (configuration not stated) | > 51.1 µg/mL
CC(=O)Nc1ccc(N2CCN(c3ccc(F)cc3)CC2)cc1 | 0.7 µg/mL (≈ 2.23 µM)
c1ccc(-c2cn(-c3ccccc3)c3ncnc(N4CCCCC4)c23)cc1 | < 0.2 µg/mL
CCS(=O)(=O)N1CCN=C1SC(C)c1ccccc1 (configuration not stated) | 41.4 µg/mL (≈ 139 µM)
Cc1cc(C(C)(C)C)cc(S(=O)(=O)Nc2ccc(C(=O)O)cc2)c1C | 40.8 µg/mL (≈ 113 µM)
Cc1nc(-c2ccc(C(=O)N3CCCC3)cc2)cs1 | > 40.9 µg/mL
N#Cc1ccc(OCC(O)CS(=O)(=O)c2ccccc2)cc1 (configuration not stated) | 46.6 µg/mL (≈ 147 µM)
Cc1ccc(Cn2c(=S)[nH]c3ccccc3c2=O)cc1 | < 0.3 µg/mL
CC1C(=O)Nc2ccccc2N1C(=O)c1ccc(Cl)cc1 (configuration not stated) | 27.4 µg/mL (≈ 91.1 µM)
CS(=O)(=O)N1CCCC(C(=O)Nc2ccccc2)C1 (configuration not stated) | 42.2 µg/mL (≈ 149 µM)
Cc1nc2sccc2c(=O)n1N | > 27.2 µg/mL
Cc1cccnc1NC(=O)C1CCC1 | 23.4 µg/mL (≈ 123 µM)

Compound | solubility kinetic
O=[N+]([O-])c1c(NCCO)cc(N2CCC3(CC2)OCCO3)c2nonc12 | > 54.8 µg/mL
OC(CN1CCN(c2ccccc2Cl)CC1)c1ccccc1 (configuration not stated) | 41.4 µg/mL (≈ 131 µM)
O=C1C2CCCCC2C(=O)N1c1nccs1 (configuration not stated) | > 35.4 µg/mL
COc1ccccc1CCn1cc(C#N)c(=O)[nH]c1=O | > 40.7 µg/mL
COc1ccc(S(=O)(=O)N2CCN(c3cnccn3)CC2)cc1OC | > 54.7 µg/mL
COP(=O)(OC)C(NC(=O)Nc1ccccc1)c1ccccc1 (configuration not stated) | 43.9 µg/mL (≈ 131 µM)
Cc1cccc(C(=O)NCC(=O)OCC(=O)c2ccc(Br)s2)c1 | > 59.4 µg/mL
CCc1ccc(C2C(C#N)=C(N)Oc3cc(N)ccc32)cc1 (configuration not stated) | 2.4 µg/mL (≈ 8.24 µM)
O=C(Nc1ccc(F)cc1)N1CCCN(c2ccc(C(F)(F)F)cn2)CC1 | 2.2 µg/mL (≈ 5.75 µM)
CCCc1nc2cc3c(cc2[nH]1)n(C)c(=O)n3C.Cl | > 42.1 µg/mL
O=C(CNCc1ccc(F)cc1)Nc1cc(S(=O)(=O)N2CCOCC2)ccc1Cl | 8.4 µg/mL (≈ 19 µM)
O=C(CCS(=O)(=O)c1ccccc1)Nc1ncc([N+](=O)[O-])s1 | 29.2 µg/mL (≈ 85.5 µM)
O=C(COC(=O)Cc1ccc(Cl)cc1)NC1CCCC1 | > 44.4 µg/mL
O=C(Nc1cc(Cl)ccc1N1CCOCC1)c1ccc(=O)[nH]c1 | 38.1 µg/mL (≈ 114 µM)
O=c1cc(O)c2sc3nc(C(F)(F)F)c4c(c3c2[nH]1)CCCCC4 | > 53.2 µg/mL
COC(=O)CNC(=O)c1cccc(Cl)c1 | > 34.1 µg/mL
Cc1n(Cc2ccccc2)c2ccccc2[n+]1Cc1ccccc1.[Cl-] | 51.9 µg/mL
CCOc1ncccc1C(=O)Nc1ccccc1F | 2.5 µg/mL (≈ 9.61 µM)
Cc1cc(C)c(NC(N)=S)c(C)c1 | > 29.1 µg/mL
Cc1cc(C)nc(SCc2c(F)cccc2Cl)n1 | < 0.3 µg/mL
CCc1nc(NC(=O)Cc2csc(C)n2)sc1C(=O)OC | > 48.8 µg/mL
CC(C)N=C(NS(=O)(=O)c1cccs1)c1ccccc1 | > 46.3 µg/mL
Cc1cccc(-c2nc(C#N)c(NCC3CCCO3)o2)c1 (configuration not stated) | 2.3 µg/mL (≈ 8.12 µM)
Br.Fc1ccc(CNCC2CCCO2)cc1 (configuration not stated) | 39.1 µg/mL
COc1ccc(-c2cc(C(F)(F)F)nc(N)n2)cc1 | 1.4 µg/mL (≈ 5.2 µM)

Compound | solubility kinetic
O=C(NN=C1CCCCCC1)c1ccncc1 | > 34.7 µg/mL
CC1CC2c3cccc(C(=O)O)c3C(=O)N2c2ccc(Cl)cc21 (configuration not stated) | > 49.2 µg/mL
COCCNC(=O)C(OC(=O)c1cccs1)c1ccc(F)cc1 (configuration not stated) | > 50.6 µg/mL
CSc1ccccc1C(=O)Nc1ccc2c(c1)CCC2 | 16.8 µg/mL (≈ 59.3 µM)
Cc1nnc(SCC(=O)c2c(N)n(C3CC3)c(=O)[nH]c2=O)n1C | > 50.5 µg/mL
CCCN1CCC(NC2CCC(O)CC2)CC1 (configuration not stated) | 27.1 µg/mL (≈ 113 µM)
CC(NC(=O)Nc1cccc(F)c1)c1ccc2c(c1)OCO2 (configuration not stated) | 2.1 µg/mL (≈ 6.95 µM)
O=C(CSc1ccc([N+](=O)[O-])cn1)Nc1ccc(N2CCOCC2)cc1 | 0.9 µg/mL (≈ 2.4 µM)
Cc1cc(O)cc(=O)n1C | > 20.9 µg/mL
O=C(c1ccccc1O)N1CCOCC1 | 30.5 µg/mL (≈ 147 µM)
S=C(NCC1CCCO1)N1CCc2ccccc2C1 (configuration not stated) | > 41.5 µg/mL
C/C(=N/OC(=O)c1ccc(Cl)cc1Cl)c1oc(C)nc1C | 1.9 µg/mL (≈ 5.81 µM)
O=C(NCC1CCCCC1)c1cc([N+](=O)[O-])ccc1Cl | 8 µg/mL (≈ 27 µM)
CCCC(C)NC(=O)Cc1ccccc1 (configuration not stated) | 30 µg/mL (≈ 146 µM)
Cc1ccc(CNC(=O)C2CCC(=O)N2C(C)C)cc1 (configuration not stated) | > 41.2 µg/mL
COc1ccc(-n2c(C)c(C)c3c(NCCCN(C)C)ncnc32)cc1 | > 53 µg/mL
O=C1CN(C(=O)COC(=O)CCc2ccccc2)c2ccccc2N1 | > 50.8 µg/mL
O=C1C(Cl)=C(NCCN2CCOCC2)C(=O)c2ccccc21 | > 48.1 µg/mL
Cc1cccc(C(=O)N2CCC(c3nc4ccccc4s3)CC2)c1 | > 50.5 µg/mL
O=C(COC(=O)c1cnccn1)c1ccc([N+](=O)[O-])cc1 | > 43.1 µg/mL
CCOC(=O)c1cnc2c(F)ccc(F)c2c1Sc1ccccc1 | 5.7 µg/mL (≈ 16.5 µM)
CCCc1cc(C(=O)Nc2ccc(F)c(Cl)c2)no1 | 1.5 µg/mL (≈ 5.31 µM)
